The source of these data is ChEMBL document CHEMBL3046237, “Efficacy of methyl nonyl ketone as an in-soil repellent for common voles (Microtus arvalis)” (2013).

The source made the active and inactive calls. No cut-off for these calls is given here.

The test system of assay [1] is Microtus arvalis. The assay can be described thus: In-soil repellent activity against Microtus arvalis (Common vole) in forage grassland assessed as decrease in number of active burrow entrances at 3.97% ai applied as foam in field for first 3 days and reapplied on day 10 measured on day 14. The assay is classed as functional, organism-based.
Assay [2] concerns Microtus arvalis. The assay can be described thus: In-soil repellent activity against Microtus arvalis (Common vole) in forage grassland assessed as decrease in number of active burrow entrances at 3.97% ai applied as foam in field for first 3 days and reapplied on day 10 measured at 24 hr after last drug dosage. The assay is classed as functional, organism-based.
Assay [3] relates to Microtus arvalis. The assay can be described thus: Decrease in reopening of compound treated burrow entrances in forage grassland by Microtus arvalis (Common vole) assessed as increase in number of new burrow entrances at 3.97% ai applied as foam in field (reference value: 41 +/-21.1%). On the set-up: scale not given: the % may be the effect or the level left. In kind it is functional.

The test system of assay [4] is Microtus arvalis. Description: In-soil repellent activity against Microtus arvalis (Common vole) in forage grassland assessed as decrease in number of active burrow entrances at 3.97% ai applied as foam in field measured after 4-5 days of treatment. The assay is classed as functional, organism-based.
Assay [5] deals with Microtus arvalis. The assay can be described thus: In-soil repellent activity against Microtus arvalis (Common vole) in forage grassland assessed as decrease in number of active burrow entrances at 3.97% ai applied as foam in field measured after 6 days of treatment relative to untreated control. In kind it is functional.
Assay [6] has as its system Microtus arvalis. Description: In-soil repellent activity against Microtus arvalis (Common vole) in forage grassland assessed as decrease in number of active burrow entrances at 3.97% ai applied as foam in field measured after 6 days of treatment (reference value: 48 +/-12%). The assay is classed as functional.
In assay [7] the test system is Microtus arvalis. The assay can be described thus: In-soil repellent activity against Microtus arvalis (Common vole) in forage grassland assessed as decrease in number of active burrow entrances at 3.97% ai applied as foam in field measured after 48 hr relative to control. The assay is classed as functional.
Assay [8] has as its system Microtus arvalis. The assay can be described thus: In-soil repellent activity against Microtus arvalis (Common vole) in forage grassland assessed as decrease in number of active burrow entrances at 3.97% ai applied as foam in field measured after 24 hr relative to control. In kind it is functional.
Assay [9] has as its system Microtus arvalis. The assay can be described thus: In-soil repellent activity against Microtus arvalis (Common vole) in forage grassland assessed as decrease in number of active burrow entrances at 3.97% ai applied as foam in field for 3 days measured on day 10. In kind it is functional, organism-based.
Assay [10] has as its system Microtus arvalis. The assay can be described thus: In-soil repellent activity against Microtus arvalis (Common vole) in forage grassland assessed as decrease in number of active burrow entrances at 3.97% ai applied as foam in field for 3 days measured on day 7. In kind it is functional, organism-based.
Assay [11] relates to Microtus arvalis. Description: In-soil repellent activity against Microtus arvalis (Common vole) in forage grassland assessed as decrease in number of active burrow entrances at 3.97% ai applied as foam in field measured after 3 days of treatment. The assay is classed as functional, organism-based.
In assay [12] the test system is Microtus arvalis. Description: Decrease in reopening of compound treated burrow entrances in forage grassland by Microtus arvalis (Common vole) assessed as increase in number of new burrow entrances at 3.97% ai applied as foam in field measured after 5 days of treatment (reference value: 40 +/-19.4%). The assay is classed as functional. On the set-up: scale not given: the % may be the effect or the level left.

Take `CCCCCCCCCC(C)=O` [METHYL NONYL KETONE]: the inhibition result in [1], in assay [2], in assay [4], in [10] and in assay [11] was “Active” in each case. Also, the Activity was 73% in [3] and 95% in assay [12]. For the same compound, the “fold change (FC)” value is reported as 2 in assay [5], 2 in assay [7] and 3 in assay [8]. In [6], the “inhibition (INH)” value came out at 92%. In addition, the inhibition result in assay [9] was “inactive”.
